The source of these data is patent US7989625B2, “Thienopyridines” (Merck Patent GmbH, priority 2005, dated 2011).

This assay concerns the target T1, human HSP90α (Homo sapiens, UniProt P07900).
T1 construct: host or cells: E. coli
The assay can be described thus: radioligand filter binding test, competition with [3H]17AAG for HSP90. The conditions noted are these: recombinant human HSP90α, [3H]17AAG 0.08 μM, 22° C., 30 min. The source says: The binding of geldanamycin or 17-allylamino-17-demethoxygeldanamycin (17AAG) to HSP90 and competitive inhibition thereof can be utilised in order to determine the inhibitory activity of the compounds according to the invention (Carreras et al. 2003, Chiosis et al. 2002).
In the specific case, a radioligand filter binding test is used. The radioligand used here is tritium-labelled 17-allylaminogeldanamycin, [3H]17AAG. This filter binding test allows a targeted search for inhibitors which interfere with the ATP binding site.
Recombinant human HSP90α (E. coli expressed, 95% purity); [3H]17AAG (17-allylaminogeldanamycin, [allylamino-2,3-^3H. Specific activity: 1.11×10^12 Bq/mmol (Moravek, MT-1717);
HEPES filter buffer (50 mM HEPES, pH 7.0, 5 mM MgCl2, BSA 0.01%) Multiscreen FB (1 μm) filter plate (Millipore, MAFBNOB 50).
The 96-well microtitre filter plates are firstly irrigated and coated with 0.1% of polyethylenimine.
The test is carried out under the following conditions: • Reaction temperature 22° C. • Reaction time: 30 min., shaking at 800 rpm • Test volume: 50 μl • Final Concentrations: • 50 mM HEPES HCl, pH 7.0, 5 mM MgCl2, 0.01% (w/v) BSA • HSP90:1.5 μg/assay • [3H]17AAG: 0.08 μM.
At the end of the reaction, the supernatant in the filter plate is removed by suction with the aid of a vacuum manifold (Multiscreen Separation System, Millipore), and the filter is washed twice.
The filter plates are then measured in a beta counter (Microbeta, Wallac) with scintillator (Microscint 20, Packard).
“% of control” is determined from the “counts per minutes” values and the IC-50 value of a compound is calculated therefrom.
With `COc1ccc(-c2c(C#N)c(N)nc3sc(C(N)=O)c(N)c23)cc1NC(=O)c1ccncc1` [Compound A37, 2-aminocarbonyl-3,6-diamino-5-cyano-4-[4-methoxy-3-(pyridin-4-ylcarbonylamino)phenyl]thieno[2,3-b]pyridine], the IC50 amounted to 1.9 µM.

For the molecule `COc1ccc(-c2c(C#N)c(N)nc3sc(C(N)=O)c(N)c23)cc1NC(=O)c1ccccc1C(F)(F)F` [Compound A36, 2-aminocarbonyl-3,6-diamino-5-cyano-4-[4-methoxy-3-(2-trifluoromethylbenzoylamino)phenyl]thieno[2,3-b]pyridine], the IC50 amounted to 11 µM.

With `COc1ccc(-c2c(C#N)c(N)nc3sc(C(N)=O)c(N)c23)cc1NC(=O)c1ccc(C(F)(F)F)cc1` [Compound A35, 2-aminocarbonyl-3,6-diamino-5-cyano-4-[4-methoxy-3-(4-trifluoromethylbenzoylamino)phenyl]thieno[2,3-b]pyridine], the IC50 amounted to 5.9 µM. For `COc1ccc(-c2c(C#N)c(N)nc3sc(C(N)=O)c(N)c23)cc1NC(=O)C(C)C` [Compound A38, 2-aminocarbonyl-3,6-diamino-5-cyano-4-[4-methoxy-3-(prop-2-ylcarbonylamino)phenyl]thieno[2,3-b]pyridine] the value was 5.5 µM.

Usually IC50 stands for the midpoint of a concentration-inhibition curve.
